Active and inactive are the calls of the source.
Assays:
[1] = target: T1, Beta-lactamase (Pseudomonas aeruginosa, UniProt Q79MP6); test: IMP-1 metallo-beta-lactamase inhibitors, dose response, selectivity assay for VIM-2 inhibitor project, biochemical, epi-absorbance (AID 1920)
[2] = target: Beta-lactamase (Salmonella choleraesuis (strain SC-B67), UniProt Q5J463); test: Epi-absorbance-based counterscreen for selective VIM-2 inhibitors: dose response biochemical high throughput screening assay to identify inhibitors of TEM-1 serine-beta-lactamase.
Sequence of Beta-lactamase (Salmonella choleraesuis (strain SC-B67), UniProt Q5J463) (Q5J463 whole entry): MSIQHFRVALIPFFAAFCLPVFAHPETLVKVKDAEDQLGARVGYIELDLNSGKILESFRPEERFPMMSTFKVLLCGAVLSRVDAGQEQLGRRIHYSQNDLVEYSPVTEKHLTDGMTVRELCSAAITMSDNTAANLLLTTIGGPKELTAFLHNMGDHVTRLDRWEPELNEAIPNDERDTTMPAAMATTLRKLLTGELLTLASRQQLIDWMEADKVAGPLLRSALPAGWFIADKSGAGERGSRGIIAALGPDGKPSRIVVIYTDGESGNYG

[3] = target: T1, Beta-lactamase; test: […] counterscreen for selective VIM-2 inhibitors: dose response biochemical high throughput screening assay to identify inhibitors of IMP-1 metallo-beta-lactamase.
[4] = target: DNA (cytosine-5)-methyltransferase 1 (Homo sapiens, UniProt P26358); test: DNMT1 methyltransferase inhibitors, confirmation, biochemical, fluorescent molecular beacon (AID 602386); type: functional
[5] = target: T2, Carboxy-terminal domain RNA polymerase II polypeptide A small phosphatase 1 (Homo sapiens, UniProt Q9GZU7); test: inhibitors of CTDSP1, concentration-response testing, biochemical assay, absorbance-based, actives from ultra-high-throughput screening (AID 540297); type: functional
T2 sequence (Q9GZU7 whole entry): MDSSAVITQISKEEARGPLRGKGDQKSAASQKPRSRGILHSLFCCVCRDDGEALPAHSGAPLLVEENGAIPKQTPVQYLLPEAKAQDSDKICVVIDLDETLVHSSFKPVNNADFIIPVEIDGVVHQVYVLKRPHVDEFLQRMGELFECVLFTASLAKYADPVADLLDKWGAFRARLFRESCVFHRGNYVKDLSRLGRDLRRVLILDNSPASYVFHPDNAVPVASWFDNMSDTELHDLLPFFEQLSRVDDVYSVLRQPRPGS

[6] = target: G-protein coupled receptor 55 (Homo sapiens, UniProt Q9Y2T6); test: GPR55 antagonists blocking LPI-driven arrestin recruitment, primary screen, imaging, U2OS, beta-arrestin-GFP, LPI agonist (AID 2013); type: functional;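 further: antagonist potency measured as reduced agonist-driven arrestin aggregation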
[7] = target: 26S proteasome non-ATPase regulatory subunit 14 (Homo sapiens, UniProt O00487); test: inhibition of proteasome subunit RPN11 – biochemical, fluorescence polarization, uHTS hits, confirmation (AID 602368); type: functional
Sequence of 26S proteasome non-ATPase regulatory subunit 14 (O00487 whole entry): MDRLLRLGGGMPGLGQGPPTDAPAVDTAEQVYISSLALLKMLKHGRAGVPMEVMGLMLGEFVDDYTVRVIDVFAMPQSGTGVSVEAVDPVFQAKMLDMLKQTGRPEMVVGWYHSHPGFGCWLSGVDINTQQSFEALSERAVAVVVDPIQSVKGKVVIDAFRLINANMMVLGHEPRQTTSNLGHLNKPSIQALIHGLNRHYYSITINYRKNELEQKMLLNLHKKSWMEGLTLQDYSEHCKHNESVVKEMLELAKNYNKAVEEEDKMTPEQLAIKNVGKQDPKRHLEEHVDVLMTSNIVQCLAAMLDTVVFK

[8] = target: 72 kDa type IV collagenase (Homo sapiens, UniProt P08253); test: Dose Response validation of uHTS RPN11 inhibitor hits using a MMP-2 Fluorescence assay.; type: functional
[9] = target: Prothrombin (Bos taurus, UniProt P00735); test: thrombin inhibition, dose response, biochemical, fluorescence polarization, uHTS hits (AID 602369); type: functional
[10] = target: T3, Histone-lysine N-methyltransferase NSD2 (Homo sapiens, UniProt O96028); type: biochemical
T3 sequence (O96028 whole entry): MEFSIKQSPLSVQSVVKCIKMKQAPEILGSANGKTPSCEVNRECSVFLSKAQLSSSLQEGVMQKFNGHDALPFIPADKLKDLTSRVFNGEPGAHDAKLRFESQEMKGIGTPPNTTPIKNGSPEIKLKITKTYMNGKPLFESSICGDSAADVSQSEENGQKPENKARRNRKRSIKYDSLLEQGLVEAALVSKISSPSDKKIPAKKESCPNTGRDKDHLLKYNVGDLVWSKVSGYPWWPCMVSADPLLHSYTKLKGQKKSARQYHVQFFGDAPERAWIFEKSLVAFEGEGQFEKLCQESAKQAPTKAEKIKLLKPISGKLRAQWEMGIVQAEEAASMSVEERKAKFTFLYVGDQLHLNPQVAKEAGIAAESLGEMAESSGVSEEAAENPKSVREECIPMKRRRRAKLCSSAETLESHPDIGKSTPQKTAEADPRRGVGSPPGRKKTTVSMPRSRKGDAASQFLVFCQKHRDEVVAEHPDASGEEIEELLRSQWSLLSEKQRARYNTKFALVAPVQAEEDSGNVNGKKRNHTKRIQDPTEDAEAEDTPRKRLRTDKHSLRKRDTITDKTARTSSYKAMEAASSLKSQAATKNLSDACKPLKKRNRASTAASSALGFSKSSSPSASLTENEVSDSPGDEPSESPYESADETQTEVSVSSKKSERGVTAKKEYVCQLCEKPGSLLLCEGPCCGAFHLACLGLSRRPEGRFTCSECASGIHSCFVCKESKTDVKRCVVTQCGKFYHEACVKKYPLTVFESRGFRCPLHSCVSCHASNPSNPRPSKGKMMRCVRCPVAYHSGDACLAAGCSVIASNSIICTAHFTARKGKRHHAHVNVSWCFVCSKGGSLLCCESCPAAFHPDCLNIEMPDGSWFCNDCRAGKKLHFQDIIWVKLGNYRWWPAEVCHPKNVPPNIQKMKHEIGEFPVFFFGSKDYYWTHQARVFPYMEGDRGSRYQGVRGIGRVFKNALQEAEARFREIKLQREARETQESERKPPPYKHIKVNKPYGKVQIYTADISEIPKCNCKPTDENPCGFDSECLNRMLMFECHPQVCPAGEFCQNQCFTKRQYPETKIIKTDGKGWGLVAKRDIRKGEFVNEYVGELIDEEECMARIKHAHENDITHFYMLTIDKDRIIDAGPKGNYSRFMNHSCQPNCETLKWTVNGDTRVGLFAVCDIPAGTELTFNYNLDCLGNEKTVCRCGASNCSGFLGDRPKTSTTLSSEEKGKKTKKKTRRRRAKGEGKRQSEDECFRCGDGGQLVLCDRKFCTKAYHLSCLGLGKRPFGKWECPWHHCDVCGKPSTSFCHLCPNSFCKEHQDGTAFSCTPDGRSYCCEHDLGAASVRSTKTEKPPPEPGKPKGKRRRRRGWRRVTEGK

[11] = target: Potassium voltage-gated channel subfamily KQT member 2 (Rattus norvegicus, UniProt O88943); test: KCNQ2 potassium channel inhibitors, dose response, cell-based, automated electrophysiology, set II, rat KCNQ2 (AID 588637); type: functional
[12] = growth suppression of PTEN-null colon cells, dose response, cell-based, HCT116 PTEN knockout (AID 1047); type: functional;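 further: HCT116 colon tumor cells with PTEN knocked out; cells exposed to compound for 60 hours before readout; potency for loss of cell viability measured by luminescence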
[13] = target: T4, Tyrosine-protein phosphatase non-receptor type 22 (Homo sapiens, UniProt Q9Y2R2); test: PTPN22 phosphatase inhibition, dose response, selectivity assay for STEP inhibitor project, biochemical (AID 624241); type: functional
T4 sequence (Q9Y2R2 whole entry): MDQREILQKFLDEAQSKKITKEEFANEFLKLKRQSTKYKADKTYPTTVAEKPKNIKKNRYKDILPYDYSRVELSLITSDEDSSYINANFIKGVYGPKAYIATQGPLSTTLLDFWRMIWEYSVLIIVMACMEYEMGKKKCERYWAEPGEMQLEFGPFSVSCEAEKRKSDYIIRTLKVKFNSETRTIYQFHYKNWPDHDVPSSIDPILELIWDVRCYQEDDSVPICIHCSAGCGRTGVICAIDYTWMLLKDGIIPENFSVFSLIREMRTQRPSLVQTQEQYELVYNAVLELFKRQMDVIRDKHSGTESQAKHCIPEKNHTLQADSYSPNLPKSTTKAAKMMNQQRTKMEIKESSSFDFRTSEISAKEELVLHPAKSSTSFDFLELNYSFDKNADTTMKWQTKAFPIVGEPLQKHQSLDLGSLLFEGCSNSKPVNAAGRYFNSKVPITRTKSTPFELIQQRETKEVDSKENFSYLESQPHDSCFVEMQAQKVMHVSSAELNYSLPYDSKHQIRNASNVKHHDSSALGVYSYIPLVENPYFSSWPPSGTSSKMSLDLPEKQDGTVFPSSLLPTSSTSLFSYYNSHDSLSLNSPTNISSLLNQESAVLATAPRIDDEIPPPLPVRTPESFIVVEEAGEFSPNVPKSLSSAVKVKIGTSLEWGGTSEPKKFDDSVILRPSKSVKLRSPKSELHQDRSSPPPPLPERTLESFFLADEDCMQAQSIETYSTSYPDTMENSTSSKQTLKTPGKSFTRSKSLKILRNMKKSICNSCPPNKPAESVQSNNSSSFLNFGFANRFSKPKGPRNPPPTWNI

[14] = target: Tyrosine-protein phosphatase non-receptor type 5 (Homo sapiens, UniProt P54829); test: STEP phosphatase inhibitors, confirmation, biochemical, fluorescence intensity, uHTS hits (AID 602372); type: functional; conditions: read-out: IC50_Mean
Sequence of Tyrosine-protein phosphatase non-receptor type 5 (P54829 whole entry): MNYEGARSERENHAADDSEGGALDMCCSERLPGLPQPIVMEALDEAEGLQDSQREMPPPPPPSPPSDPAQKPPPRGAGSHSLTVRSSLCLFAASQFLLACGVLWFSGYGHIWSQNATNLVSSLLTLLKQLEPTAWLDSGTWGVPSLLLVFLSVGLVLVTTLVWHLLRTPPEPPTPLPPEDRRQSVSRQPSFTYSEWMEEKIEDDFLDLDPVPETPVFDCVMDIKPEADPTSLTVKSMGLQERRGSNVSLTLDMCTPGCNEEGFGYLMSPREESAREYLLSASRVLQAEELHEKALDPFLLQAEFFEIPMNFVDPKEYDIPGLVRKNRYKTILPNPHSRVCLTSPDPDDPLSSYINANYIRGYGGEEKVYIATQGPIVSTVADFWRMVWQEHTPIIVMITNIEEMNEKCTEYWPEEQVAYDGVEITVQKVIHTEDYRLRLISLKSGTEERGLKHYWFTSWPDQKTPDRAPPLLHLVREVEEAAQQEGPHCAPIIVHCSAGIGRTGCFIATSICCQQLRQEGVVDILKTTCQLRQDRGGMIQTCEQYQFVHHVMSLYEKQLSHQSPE

[15] = target: Dual specificity protein phosphatase 3 (Homo sapiens, UniProt P51452); test: VHR phosphatase inhibition, dose response, selectivity assay for STEP inhibitor project, biochemical (AID 602374); type: functional; conditions: read-out: IC50_Mean
Sequence of Dual specificity protein phosphatase 3 (P51452 whole entry): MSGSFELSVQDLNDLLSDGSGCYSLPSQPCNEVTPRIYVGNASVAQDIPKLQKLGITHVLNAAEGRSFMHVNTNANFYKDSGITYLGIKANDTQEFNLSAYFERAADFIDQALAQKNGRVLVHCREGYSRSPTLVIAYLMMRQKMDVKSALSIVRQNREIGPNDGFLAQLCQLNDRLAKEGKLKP

[16] = growth suppression of beta-catenin-knockout colon cells, dose response, cell-based, HCT116, human colon tumor (AID 1045); type: functional;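 further: HCT116 colon tumor cells with beta catenin knocked out; cells exposed to compound for 60 hours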
[17] = target: Tyrosine-protein phosphatase non-receptor type 11 (Homo sapiens, UniProt Q06124); test: SHP2 phosphatase inhibition, dose response, selectivity assay for STEP inhibitor project, biochemical (AID 602367); type: functional; conditions: read-out: IC50_Mean
[18] = target: T5, Low molecular weight phosphotyrosine protein phosphatase (Homo sapiens, UniProt P24666); type: functional; conditions: read-out: IC50_Mean
T5 sequence (P24666 whole entry): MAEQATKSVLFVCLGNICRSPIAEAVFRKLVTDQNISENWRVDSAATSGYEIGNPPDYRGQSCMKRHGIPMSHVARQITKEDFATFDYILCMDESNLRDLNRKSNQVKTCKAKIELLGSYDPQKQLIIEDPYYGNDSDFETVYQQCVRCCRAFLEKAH

[19] = target: T5, Low molecular weight phosphotyrosine protein phosphatase; type: functional; conditions: read-out: IC50_Mean; remark: listed apart in the source
[20] = target: Ras and Rab interactor 1/Tyrosine-protein kinase ABL1 (Homo sapiens, UniProt P00519+Q13671); type: functional;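 further: biochemical TR-FRET dose-response test measuring inhibition of binding between Rin1 and Abl proteins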
Sequence of Ras and Rab interactor 1/Tyrosine-protein kinase ABL1 (P00519 whole entry): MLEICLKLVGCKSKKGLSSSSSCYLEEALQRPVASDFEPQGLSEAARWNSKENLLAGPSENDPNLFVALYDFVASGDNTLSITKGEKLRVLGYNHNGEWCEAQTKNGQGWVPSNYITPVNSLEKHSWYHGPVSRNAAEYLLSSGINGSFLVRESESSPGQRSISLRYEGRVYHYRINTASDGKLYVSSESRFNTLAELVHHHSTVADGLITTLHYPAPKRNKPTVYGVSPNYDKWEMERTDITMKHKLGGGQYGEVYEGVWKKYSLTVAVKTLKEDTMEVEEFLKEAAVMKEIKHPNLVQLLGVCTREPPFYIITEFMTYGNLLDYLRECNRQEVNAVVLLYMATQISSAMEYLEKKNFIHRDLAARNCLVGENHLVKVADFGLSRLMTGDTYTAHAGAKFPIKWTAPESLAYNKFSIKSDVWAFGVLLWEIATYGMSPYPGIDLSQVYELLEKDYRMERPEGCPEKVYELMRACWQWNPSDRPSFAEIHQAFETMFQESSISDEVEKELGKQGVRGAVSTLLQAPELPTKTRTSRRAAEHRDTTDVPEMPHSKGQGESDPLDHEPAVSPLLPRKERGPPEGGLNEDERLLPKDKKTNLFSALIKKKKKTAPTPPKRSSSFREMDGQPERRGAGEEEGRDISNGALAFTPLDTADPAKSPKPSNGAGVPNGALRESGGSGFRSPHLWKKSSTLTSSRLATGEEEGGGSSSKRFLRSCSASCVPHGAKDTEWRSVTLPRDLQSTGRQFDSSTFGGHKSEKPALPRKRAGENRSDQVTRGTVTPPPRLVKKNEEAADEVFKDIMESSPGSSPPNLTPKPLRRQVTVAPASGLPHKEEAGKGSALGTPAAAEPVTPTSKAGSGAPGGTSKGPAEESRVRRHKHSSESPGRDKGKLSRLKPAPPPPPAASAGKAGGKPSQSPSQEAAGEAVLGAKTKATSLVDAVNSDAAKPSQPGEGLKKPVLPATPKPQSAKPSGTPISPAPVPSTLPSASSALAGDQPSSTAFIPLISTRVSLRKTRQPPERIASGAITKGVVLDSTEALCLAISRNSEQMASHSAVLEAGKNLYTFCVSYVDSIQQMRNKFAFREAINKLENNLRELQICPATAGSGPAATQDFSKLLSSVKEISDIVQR
Sequence of Ras and Rab interactor 1/Tyrosine-protein kinase ABL1 (Q13671 whole entry): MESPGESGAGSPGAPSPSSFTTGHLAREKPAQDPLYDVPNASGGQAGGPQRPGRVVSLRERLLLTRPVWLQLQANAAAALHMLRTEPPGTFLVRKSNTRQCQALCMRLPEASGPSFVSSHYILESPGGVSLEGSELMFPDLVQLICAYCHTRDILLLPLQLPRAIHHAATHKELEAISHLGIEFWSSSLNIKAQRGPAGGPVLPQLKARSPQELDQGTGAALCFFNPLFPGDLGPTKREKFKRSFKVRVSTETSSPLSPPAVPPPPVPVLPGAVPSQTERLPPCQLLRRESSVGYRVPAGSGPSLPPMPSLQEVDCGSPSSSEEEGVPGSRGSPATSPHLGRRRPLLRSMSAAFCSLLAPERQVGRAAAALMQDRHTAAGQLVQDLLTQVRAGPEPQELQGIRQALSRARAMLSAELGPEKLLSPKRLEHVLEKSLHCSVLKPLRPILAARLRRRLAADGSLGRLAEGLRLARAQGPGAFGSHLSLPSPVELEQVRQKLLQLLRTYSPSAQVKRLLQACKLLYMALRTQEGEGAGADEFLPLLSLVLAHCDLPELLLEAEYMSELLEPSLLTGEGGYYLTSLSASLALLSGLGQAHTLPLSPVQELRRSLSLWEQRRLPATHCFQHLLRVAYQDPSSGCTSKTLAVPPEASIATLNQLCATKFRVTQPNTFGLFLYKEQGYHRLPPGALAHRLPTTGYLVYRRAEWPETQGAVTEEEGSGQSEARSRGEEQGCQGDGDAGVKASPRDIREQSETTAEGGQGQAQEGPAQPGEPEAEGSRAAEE

[21] = target: T6, ATP-dependent translocase ABCB1 (Homo sapiens, UniProt P08183); test: ABCG2 efflux pump inhibitor potency, dose response, Ig-MXP3 cells, JC-1, flow cytometry, set 2 (AID 504566); type: functional; conditions: read-out: EC50_MICROM_;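 further: flow cytometry median green fluorescence of retained JC-1 dye; potency of efflux pump inhibition measured as rising substrate retention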
T6 sequence (P08183 whole entry): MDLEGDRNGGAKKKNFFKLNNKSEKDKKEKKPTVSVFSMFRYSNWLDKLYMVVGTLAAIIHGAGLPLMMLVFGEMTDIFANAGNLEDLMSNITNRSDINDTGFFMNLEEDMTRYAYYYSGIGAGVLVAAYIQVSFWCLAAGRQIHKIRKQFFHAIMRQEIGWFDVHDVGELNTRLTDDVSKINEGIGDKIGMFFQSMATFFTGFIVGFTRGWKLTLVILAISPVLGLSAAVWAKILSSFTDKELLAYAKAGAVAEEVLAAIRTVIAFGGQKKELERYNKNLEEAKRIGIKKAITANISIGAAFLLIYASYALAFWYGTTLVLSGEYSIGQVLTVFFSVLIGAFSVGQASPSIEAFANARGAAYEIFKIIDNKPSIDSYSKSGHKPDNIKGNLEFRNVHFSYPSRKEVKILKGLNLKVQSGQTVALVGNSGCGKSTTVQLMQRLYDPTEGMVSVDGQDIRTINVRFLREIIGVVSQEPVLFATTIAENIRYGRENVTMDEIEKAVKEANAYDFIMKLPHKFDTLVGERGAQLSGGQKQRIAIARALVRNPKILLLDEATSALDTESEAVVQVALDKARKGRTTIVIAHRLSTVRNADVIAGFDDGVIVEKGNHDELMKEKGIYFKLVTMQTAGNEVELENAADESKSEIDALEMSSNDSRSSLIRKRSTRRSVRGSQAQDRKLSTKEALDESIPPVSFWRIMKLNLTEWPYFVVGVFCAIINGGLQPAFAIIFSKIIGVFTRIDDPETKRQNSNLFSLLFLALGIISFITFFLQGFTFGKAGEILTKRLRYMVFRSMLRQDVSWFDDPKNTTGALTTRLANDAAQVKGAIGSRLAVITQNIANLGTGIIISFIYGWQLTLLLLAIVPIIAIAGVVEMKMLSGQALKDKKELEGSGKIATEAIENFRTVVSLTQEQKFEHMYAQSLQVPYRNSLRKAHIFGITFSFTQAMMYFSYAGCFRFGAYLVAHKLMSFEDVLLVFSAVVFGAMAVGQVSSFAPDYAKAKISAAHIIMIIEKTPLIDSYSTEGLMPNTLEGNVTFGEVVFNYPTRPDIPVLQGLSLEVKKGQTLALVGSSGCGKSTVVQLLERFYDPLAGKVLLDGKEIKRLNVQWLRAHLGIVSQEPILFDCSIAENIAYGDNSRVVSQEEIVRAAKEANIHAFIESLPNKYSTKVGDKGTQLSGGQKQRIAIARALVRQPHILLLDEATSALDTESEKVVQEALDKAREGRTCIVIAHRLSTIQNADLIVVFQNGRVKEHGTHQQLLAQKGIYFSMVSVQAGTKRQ

[22] = target: T6, ATP-dependent translocase ABCB1; test: ABCB1 efflux inhibitor potency, dose response, Jurkat-DNR cells, JC-1, flow cytometry, set 2 (AID 504569); type: functional; conditions: read-out: EC50_MICROM_;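 further: potency of pump inhibitors that raise cellular JC-1 green fluorescence up to the nicardipine level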

T1 sequence (Q79MP6 whole entry): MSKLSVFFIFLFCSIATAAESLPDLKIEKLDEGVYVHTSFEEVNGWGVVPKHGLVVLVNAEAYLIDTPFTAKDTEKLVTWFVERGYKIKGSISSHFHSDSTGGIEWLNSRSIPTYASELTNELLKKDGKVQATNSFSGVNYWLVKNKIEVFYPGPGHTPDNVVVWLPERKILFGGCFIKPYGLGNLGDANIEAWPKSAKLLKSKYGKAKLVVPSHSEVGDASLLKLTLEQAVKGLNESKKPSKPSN

Question: With Cc1c(C)c2c(OCC(=O)N3CCC[C@H]3C(=O)O)cc3c(c2oc1=O)CCC(C)(C)O3 as the compound, how does the IC50 [1] read?
Answer: > 59.6 µM (inactive)

Question: And the IC50 [2]?
Answer: > 59.6 µM (inactive)

Question: And the IC50 [3]?
Answer: > 59.6 µM (inactive)

Question: With COc1ccc(CN2C(=O)NC(=O)/C(=C\c3ccco3)C2=O)cc1 as the compound, how does the IC50 [4] read?
Answer: 12.3 µM (active)

Question: What about the IC50 [5] of the same compound?
Answer: 3.91 µM (active)

Question: And the IC50 [6]?
Answer: 3.34 µM (active)

Question: And the IC50 [7]?
Answer: 26.5 µM (active)

Question: And the IC50 [8]?
Answer: 12.7 µM (active)

Question: What about the IC50 [9] of the same compound?
Answer: 54.1 µM (active)

Question: What about the AC50 [10] of the same compound?
Answer: 12.8 µM (active)

Question: For COc1ccc(CCN(C)C(=O)c2cc(-c3ccccc3)nc3ccc(C)cc23)cc1OC, which IC50 [11] is on record?
Answer: 0.478 µM (active)

Question: Which EC50 [12] does the source give for CCOc1ccc(C(=O)Nc2cc(-c3nc4ccccc4[nH]3)ccc2Cl)cc1[N+](=O)[O-] here?
Answer: 8.7 µM (active)

Question: What about the IC50 [13] of the same compound?
Answer: 29.9 µM (inactive)

Question: What about the IC50 [14] of the same compound?
Answer: 6.73 µM (active)

Question: What about the IC50 [15] of the same compound?
Answer: 3.11 µM (active)

Question: What about the EC50 [16] of the same compound?
Answer: 8.99 µM (active)

Question: What about the IC50 [17] of the same compound?
Answer: 2.14 µM (active)

Question: What does the source list for Cc1nc(N)nc(N)c1-c1ccc([N+](=O)[O-])cc1?
Answer: IC50 [18]: 12.3 µM (active); IC50 [19]: 11.7 µM (active)

Question: Which IC50 [20] does the source give for CCN(CC(=O)Nc1ccc(NC(C)=O)cc1)C(=O)c1ccccc1SCc1c(C)noc1C here?
Answer: 2.22 µM (active)

Question: Which results are given for O=C(c1ccoc1)N1CCN(c2cc(-c3ccccc3)nc3cc(-c4ccccc4)nn23)CC1?
Answer: EC50 [21]: 2.02 µM (active); EC50 [22]: 1.79 µM (active)
